From patent US20130203110A1 (priority 2010, published 2013)

Target: α7 subunit of the nicotinic Acetylcholine Receptor (nAchR) (Homo sapiens, UniProt P36544)
Format: biochemical

Sequence of α7 subunit of the nicotinic Acetylcholine Receptor (nAchR) (P36544 23-502 limits assumed): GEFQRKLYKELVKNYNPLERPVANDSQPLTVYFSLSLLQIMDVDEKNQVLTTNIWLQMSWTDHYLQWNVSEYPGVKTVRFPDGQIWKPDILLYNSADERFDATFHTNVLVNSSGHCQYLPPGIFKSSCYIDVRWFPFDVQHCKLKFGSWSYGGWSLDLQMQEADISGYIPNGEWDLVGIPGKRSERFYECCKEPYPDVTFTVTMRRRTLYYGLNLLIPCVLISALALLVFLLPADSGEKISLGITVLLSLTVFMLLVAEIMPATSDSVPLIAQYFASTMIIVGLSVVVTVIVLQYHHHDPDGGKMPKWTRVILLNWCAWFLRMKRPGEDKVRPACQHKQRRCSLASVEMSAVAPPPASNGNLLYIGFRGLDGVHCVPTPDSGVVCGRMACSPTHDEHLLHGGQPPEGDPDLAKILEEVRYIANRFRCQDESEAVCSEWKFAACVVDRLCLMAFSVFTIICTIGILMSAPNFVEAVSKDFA

Compound | carbamoylcholine-induced signal after incubation with inhibitor | signal on activation of the nAchR sensor
α-Bungarotoxin [α-BTX] | could not be generated the same way | 
C[N+](C)(C)CCOC(N)=O.[Cl-] [carbamoylcholinechloride, Carbamoylcholine chloride] |  | results in a signal
